In PubChem BioAssay (NCI) one finds GI50 and TGI data, which are given here for 11 compounds.

Some test systems named below: IGROV1 ovarian; HCT-15 colon; OVCAR-3 ovarian; M14 melanoma; SR leukemia; A498 renal; SK-MEL-2 melanoma; U251 CNS; SF-295 CNS; SNB-75 CNS.
Common to all, as to assay: DTP human tumour cell line panel, 48 h

Molecules are shown by their SMILES. Values joined by “and” are separate entries in the source; they are usually repeats but may differ in a detail not shown here. Equal values may be shown once.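 Results reflect a 48-hour exposure of cells in 96-well plates to compound at five concentrations. GI50 = concentration required for 50% inhibition of growth. At the TGI there is no net growth.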

By GI50 is commonly meant the concentration that inhibits growth by half. The term TGI denotes the concentration at which net growth stops. Read a low TGI as more potent growth arrest. For `CN(C)CCOC(c1ccccc1)c1ccccc1`, the GI50 in the assay on IGROV1 ovarian was 29.3 µM; in the assay with HCT-15 colon it was 36.7 µM; in the assay on OVCAR-3 ovarian, 36 µM; in the assay on M14 melanoma it was 15.3 µM; in the assay with A498 renal it was 40.9 µM; in the assay on SK-MEL-2 melanoma it was 35.5 µM. For the same compound, the TGI in the assay on IGROV1 ovarian was 46.3 µM and > 100 µM; in the assay with HCT-15 colon, 51.5 µM and > 100 µM; in the assay with OVCAR-3 ovarian, 51.1 µM and > 100 µM; in the assay on M14 melanoma, 23.9 µM and > 100 µM; in the assay on SR leukemia, over 100 µM; with A498 renal, 58.4 µM. Further, the TGI in the assay on SK-MEL-2 melanoma is 51.6 µM and > 100 µM.

For `O=C(NO)c1ccc(Cn2c(=O)n(-c3ccccc3F)c(=O)c3ccccc32)cc1`, the GI50 was 1.92 µM in the assay on HCT-15 colon; 2.15 µM in the assay with OVCAR-3 ovarian; 1.55 µM in the assay on U251 CNS; 1.53 µM in the assay on M14 melanoma; 1.56 µM in the assay on SR leukemia; 1.66 µM with SF-295 CNS. For the same compound, the values for the GI50 in the assay with SNB-75 CNS, with A498 renal and with SK-MEL-2 melanoma were 1.45 µM, 1.02 µM and 1.29 µM, respectively. The concentration for total growth inhibition (TGI) with HCT-15 colon is 4.42 µM; with OVCAR-3 ovarian, 6.41 µM; with U251 CNS, 3.16 µM; with M14 melanoma, 3.05 µM; in the assay on SR leukemia, over 100 µM; with SF-295 CNS it was 3.29 µM. Further, the figures for the TGI in the assay on SNB-75 CNS, in the assay with A498 renal and in the assay on SK-MEL-2 melanoma were 4.78 µM, 2.57 µM and 3.43 µM, respectively.

With `O=C(NC1C2CC3CC(C2)CC1C3)c1cc(/C=C/c2ccccc2)[nH]c(=S)n1` (stereo not drawn), the TGI in the assay on IGROV1 ovarian, in the assay with OVCAR-3 ovarian, in the assay on U251 CNS, in the assay with M14 melanoma, in the assay with SR leukemia and in the assay with SF-295 CNS was over 100 µM in each case. Also, the concentration for total growth inhibition (TGI) in the assay on SNB-75 CNS, in the assay with A498 renal and with SK-MEL-2 melanoma was over 100 µM each time.

With `O=C(COC(=O)c1cccc2c(=O)c3ccccc3[nH]c12)Nc1ccccc1`, the concentration for total growth inhibition (TGI) was over 100 µM in the assay on IGROV1 ovarian; over 100 µM in the assay with OVCAR-3 ovarian; over 100 µM in the assay with U251 CNS; over 100 µM with M14 melanoma; 54.3 µM in the assay with SR leukemia; over 100 µM in the assay with SF-295 CNS. Besides, the TGI in the assay with SNB-75 CNS and with A498 renal was over 100 µM each time.

As to `O=C(NCC(O)CNC(=O)C(F)(F)F)C(F)(F)F`, the concentration for total growth inhibition (TGI) in the assay with IGROV1 ovarian, in the assay on HCT-15 colon, in the assay with OVCAR-3 ovarian, in the assay with U251 CNS, with M14 melanoma and in the assay with SR leukemia was over 100 µM each time. Further, the TGI in the assay with SF-295 CNS, in the assay on SNB-75 CNS and with A498 renal was over 100 µM each time.

Regarding `NC(N)=NS(=O)(=O)c1ccc(Nc2c3ccccc3nc3c(C(=O)Nc4ccc(S(N)(=O)=O)cc4)ccc(Cl)c23)cc1`, the concentration for total growth inhibition (TGI) in the assay on IGROV1 ovarian, in the assay with HCT-15 colon, in the assay with OVCAR-3 ovarian, with U251 CNS, in the assay on M14 melanoma and in the assay on SR leukemia was over 100 µM throughout. Also, the TGI in the assay on SF-295 CNS, with SNB-75 CNS and in the assay on A498 renal was over 100 µM throughout.

In the case of `c1ccc(CN=C(NCc2ccccc2)NCc2ccccc2)cc1`, the GI50 in the assay on IGROV1 ovarian is 1.66 µM; in the assay with HCT-15 colon, 14.3 µM; in the assay on OVCAR-3 ovarian, 3.11 µM; in the assay on U251 CNS it was 10.2 µM; in the assay on M14 melanoma, 4.18 µM; with SR leukemia, 6.21 µM. In addition, the GI50 is 1.21 µM with SF-295 CNS, 2.37 µM in the assay on SNB-75 CNS and 2.2 µM in the assay on A498 renal. The TGI is 9.51 µM in the assay with IGROV1 ovarian; over 100 µM with HCT-15 colon; 14.9 µM in the assay with OVCAR-3 ovarian; 23.5 µM in the assay on U251 CNS; 17.3 µM with M14 melanoma; 29.5 µM in the assay on SR leukemia. The total growth inhibition concentration (TGI) is 6.49 µM with SF-295 CNS, 13 µM with SNB-75 CNS and 14.7 µM in the assay on A498 renal.

`Clc1cc2n[se]nc2cc1Cl`: the concentration for total growth inhibition (TGI) with IGROV1 ovarian, with HCT-15 colon, with U251 CNS, in the assay with M14 melanoma, in the assay with SR leukemia and with SF-295 CNS was over 100 µM in each case. Besides, the TGI in the assay on SNB-75 CNS, with A498 renal and in the assay on SK-MEL-2 melanoma was over 100 µM throughout.

`N#CC1=C(N)NC(=S)NC12Nc1ccccc1N2`: the GI50 with IGROV1 ovarian was 26.9 µM; in the assay on OVCAR-3 ovarian, 22 µM; in the assay with U251 CNS it was over 100 µM; with M14 melanoma, 40 µM; in the assay on SR leukemia, 6.18 µM; in the assay with SF-295 CNS it was 33.1 µM. Also, the values for the GI50 with A498 renal and with SK-MEL-2 melanoma were 20 µM and 18.6 µM, respectively. Besides, the total growth inhibition concentration (TGI) in the assay with IGROV1 ovarian, with OVCAR-3 ovarian, in the assay with U251 CNS, with M14 melanoma, in the assay with SR leukemia and in the assay with SF-295 CNS was over 100 µM in each case. Moreover, the TGI in the assay with A498 renal was 43.5 µM; with SK-MEL-2 melanoma, over 100 µM.

As to `CCC[CH2][Sn]1([CH2]CCC)[O]C(=O)c2ccc(C)cc2[O]1`, the GI50 in the assay with IGROV1 ovarian was 1.17 µM; in the assay on OVCAR-3 ovarian it was 1.18 µM; in the assay with U251 CNS, 0.316 µM; in the assay with M14 melanoma, 0.584 µM; in the assay on SR leukemia, 0.255 µM; in the assay with SF-295 CNS, 1.21 µM. Moreover, the GI50 is 0.226 µM with SNB-75 CNS and 0.367 µM in the assay with A498 renal. The TGI in the assay with IGROV1 ovarian came out at 2.44 µM; in the assay on OVCAR-3 ovarian, 2.43 µM; in the assay with U251 CNS it was 1.16 µM; with M14 melanoma it was 1.84 µM; in the assay with SR leukemia it was 1.25 µM; in the assay with SF-295 CNS, 2.52 µM. Further, the concentration for total growth inhibition (TGI) in the assay on SNB-75 CNS is 0.659 µM; in the assay with A498 renal it was 1.06 µM.

Turning to `O=C1OC(c2ccccc2)(c2cc(Br)c(O)c(Br)c2)c2ccccc21` (stereo not drawn), the GI50 with IGROV1 ovarian was 33.6 µM; in the assay with HCT-15 colon, 25.8 µM; in the assay with OVCAR-3 ovarian, 18.1 µM; in the assay on U251 CNS, 16.9 µM; in the assay with M14 melanoma, 18.6 µM; with SR leukemia, 26 µM. Further, the GI50 is 17.5 µM with SF-295 CNS, 20.3 µM in the assay with SNB-75 CNS and 21.1 µM in the assay with A498 renal. Also, the TGI with IGROV1 ovarian is over 100 µM; in the assay with HCT-15 colon it was 76.2 µM; in the assay with OVCAR-3 ovarian it was 36.4 µM; in the assay on U251 CNS it was 38 µM; with M14 melanoma, 36.8 µM; in the assay on SR leukemia, over 100 µM. The results for the TGI in the assay on SF-295 CNS, in the assay with SNB-75 CNS and with A498 renal were 59.1 µM, 72 µM and 52 µM, respectively.
